Results: article PMC7293031 (Nucleic Acids Research, 2020)

Legend:
PvrA [1] = target: T1, PvrA (Pseudomonas aeruginosa, UniProt Q9HZP1); assay: ITC at […]°C; type: binding
T1 sequence (Q9HZP1 1-212): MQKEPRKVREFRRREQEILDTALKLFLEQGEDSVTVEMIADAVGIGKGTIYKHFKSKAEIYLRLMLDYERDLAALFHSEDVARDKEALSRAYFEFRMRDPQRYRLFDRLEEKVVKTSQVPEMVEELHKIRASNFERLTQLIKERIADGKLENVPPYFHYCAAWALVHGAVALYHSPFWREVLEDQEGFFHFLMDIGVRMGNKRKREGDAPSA

PvrA [2] = target: T2, PvrA (Pseudomonas aeruginosa, UniProt Q9HZP1, R136A); assay: ITC; type: binding
T2 sequence (Q9HZP1 1-212 R136A): T1 sequence (Q9HZP1 1-212)

CCCCCCCCCCCCCCCC(=O)SCCNC(=O)CCNC(=O)[C@H](O)C(C)(C)COP(=O)(O)OP(=O)(O)OC[C@H]1O[C@@H](n2cnc3c(N)ncnc32)[C@H](O)[C@@H]1OP(=O)(O)O [palmitoyl-coenzyme A]
Kd (PvrA [1]): 31 µM | Kd (PvrA [2]): 262 µM
